Reference: PMC9503898, “Synthesis and Evaluation of Two Long-Acting SSTR2 Antagonists for Radionuclide Therapy of Neuroendocrine Tumors” (Pharmaceuticals, 2022)
Positions of bridges follow the written chain, without caps; N, C: chain ends. Non-standard residues stand in square brackets, D forms with d. Residues, ends and D or L forms follow the SMILES beside them. *: point of attachment. DOTA = O=C(O)CN1CCN(CC(=O)O)CCN(CC(=O)*)CCN(CC(=O)O)CC1; dPhe(4-NHCONH2) = NC(=O)Nc1ccc(C[C@@H](N)C(=O)O)cc1; Dihydroorotyl(S) = O=C1C[C@@H](C(=O)*)NC(=O)N1; Phe(4-Cl) = N[C@@H](Cc1ccc(Cl)cc1)C(=O)O; Phe(4-NH2) = Nc1ccc(C[C@H](N)C(=O)O)cc1

Legend:
in vivo [1] = conditions: mouse, iv, 0.5 nmol, total radioactivity
in vivo [2] = conditions: mouse, iv, 20 MBq/0.5 nmol per animal, total radioactivity
[3] = tested on: H69 tumor tissues expressing SSTR2; experiment: Uptake and autoradiography of H69 tumor sections; type: binding, human; conditions: 10^−9 M, 90 min, rt, 10 μm sections, phosphor screen 48 h
Method: Subcutaneous fresh frozen H69 tumor tissues were cut at 10 μm thickness and immediately mounted on Starfrost glass slides (Thermo Scientific; Bleiswijk, The Netherlands). Tissue sections were incubated with washing buffer (167 mM Tris-HCl, 5 mM MgCl2) containing 0.25% BSA for 10 min at rt to prevent nonspecific binding. […] Each slide was drained off and washed with PBS. Finally, the slides were exposed to super-resolution phosphor screens for 48 h and imaged with the Cyclone system (PerkinElmer; Waltham, MA, USA). Images were analyzed and quantified using the Optiquant software Version 5 (PerkinElmer; Waltham, MA, USA).

[4] = parameters: method as in PMID 29668724; conditions: literature value; cited from earlier work
U2OS-SSTR2 cells = experiment: Uptake and internalization assay; type: cell-based, human; conditions: 10^−9 M, 2 h, 37 °C, gamma counter
Method: Human osteosarcoma cells (U2OS) stably expressing the SSTR2 receptor were used in all in vitro cell assays. Cells were cultured in Dulbecco’s modified Eagle’s medium (DMEM) from Gibco (Paisley, UK) supplemented with 2 mM L-glutamine, 10% fetal bovine serum (FBS), 50 units/mL penicillin, and 50 μg/mL streptomycin (Sigma Aldrich; Haarlerbergweg, The Netherlands) and maintained at 37 °C and in a 5% CO2 humidified chamber. Passages were performed weekly using trypsin/EDTA (0.05%/0.02% w/v).
Cells were seeded in 6-well plates 48 h before the experiment (2 × 10^5 cells/well). […] After incubation, medium was removed, and cells were washed twice with PBS. The membrane-bound fraction was collected by incubating cells with an acid buffer (50 mM glycine, 100 mM sodium chloride (NaCl), pH 2.8) for 10 min at rt. Cells were lysed using 0.5 M NaOH for 10 min at rt to acquire the internalized fraction. Both fractions were counted in a γ-counter, and data were expressed as percentage of added dose.

## C[C@@H](O)[C@@H]1NC(=O)[C@H](CCCCN)NC(=O)[C@@H](Cc2ccc(NC(N)=O)cc2)NC(=O)[C@H](Cc2ccc(NC(=O)[C@@H]3CC(=O)NC(=O)N3)cc2)NC(=O)[C@H](NC(=O)[C@H](Cc2ccc(Cl)cc2)NC(=O)CN2CCN(CC(=O)O)CCN(CC(=O)O)CCN(CC(=O)O)CC2)CSSC[C@@H](C(=O)N[C@H](Cc2ccc(O)cc2)C(N)=O)NC1=O [[^177Lu]Lu-JR11, metal not drawn] ({DOTA}-[Phe(4-Cl)][dC][Phe(4-NH2)](Dihydroorotyl(S))[dPhe(4-NHCONH2)]KTC[dY]-NH2; disulfide 2-7; N-terminus and C-terminus assumed)
In vivo [1]
  tissue to tissue ratio at 4 h: 0.6 ± 0.05
  tissue to tissue ratio at 72 h: 1.2 ± 0.3
In vivo [1]; Bone Marrow uptake
  tissue uptake at 4 h: 1.1 ± 2 %ID/g
In vivo [1]; Intestine uptake
  tissue uptake at 4 h: 0.5 ± 0.1 %ID/g
In vivo [1]; Kidneys uptake
  tissue uptake at 4 h: 12.6 ± 1.2 %ID/g
  tissue uptake at 24 h: 8.6 ± 2.3 %ID/g
  tissue uptake at 48 h: 4.1 ± 0.2 %ID/g
  tissue uptake at 72 h: 3.4 ± 1.4 %ID/g
In vivo [1]; Liver uptake
  tissue uptake at 4 h: 0.5 %ID/g
  tissue uptake at 24 h: 0.3 %ID/g
In vivo [1]; Lung uptake
  tissue uptake at 4 h: 1.3 ± 0.3 %ID/g
  tissue uptake at 24 h: 0.4 %ID/g
In vivo [1]; Pancreas uptake
  tissue uptake at 4 h: 3.5 ± 0.4 %ID/g
  tissue uptake at 48 h: 0.6 ± 0.1 %ID/g
  tissue uptake at 72 h: 0.3 %ID/g
In vivo [1]; Skin uptake
  tissue uptake at 4 h: 0.3 ± 0.1 %ID/g
In vivo [1]; Spleen uptake
  tissue uptake at 4 h: 0.3 ± 0.1 %ID/g
In vivo [1]; Stomach uptake
  tissue uptake at 4 h: 1.7 ± 0.3 %ID/g
  tissue uptake at 24 h: 1.5 ± 1.2 %ID/g
  tissue uptake at 48 h: 0.6 ± 0.2 %ID/g
  tissue uptake at 72 h: 0.4 ± 0.1 %ID/g
In vivo [1]; Tumor uptake
  tissue uptake at 4 h: 8.4 ± 0.5 %ID/g
  tissue uptake at 24 h: 6.1 ± 0.5 %ID/g
  tissue uptake at 48 h: 4.6 ± 0.3 %ID/g
  tissue uptake at 72 h: 3.6 ± 0.4 %ID/g
In vivo [2]
  tissue uptake per volume at 4 h: 4 ± 0.6 %ID/mL
  tissue uptake per volume at 24 h: 3.3 ± 0.7 %ID/mL
  tissue uptake per volume at 48 h: 2.1 ± 0.5 %ID/mL
  tissue uptake per volume at 72 h: 1.8 ± 0.4 %ID/mL
[3]
  Radioactive uptake in H69 tumor tissue sections (autoradiography): 930 ± 37 DLU/mm^2
[4]
  Log D7.4: −2.5 [18]
U2OS-SSTR2 cells
  Total uptake in U2OS-SSTR2 cells: 16.2 ± 3.0 % added dose
